Source: patent US20080227644A1, “Use of abscisic acid to control fruiting” (priority 2007, published 2008)

Experiments:
Format in all cases: in vivo
[1] = test system: Cacaks Schone plum; test: Spray of plum trees at fruitlet set stage, fruit set and fruit size; details: 600 ppm at fruitlet set stage
Method: (§1) Trees of Cacaks Schone plum and Katinka plum were sprayed with 600 ppm ABA at the fruitlet set stage or left untreated. The number of fruit per flower was determined after the normal fruit drop period had ended. At harvest the weight per 100 fruits was measured for both the ABA treated and the untreated trees. Spraying Cacaks Schone or Katinka plum trees with ABA at the fruitlet set stage reduced the number of fruits per flower and increased the average fruit weight compared to untreated trees (Table 2).

[2] = test system: Katinka plum; test: as above; details: 600 ppm at fruitlet set stage
Method: as §1

[3] = test system: PF-27 peach trees; test: Foliar spray of peach tree limbs at shuck split stage, fruit retention; details: 1000 ppm, sprayed to runoff
Excerpt: Limbs of PF-27 peach trees with fruit at the shuck split stage were flagged; the number of fruit distal to the flagging was counted. The limbs were sprayed to runoff with either water or 1000 ppm abscisic acid (S-ABA; ABA; S-(+)-abscisic acid; +-ABA, (+)-(S)-cis,trans-abscisic acid,(+)-(S)-cis,trans-ABA; S-ABA; (S)-5-(1-hydroxy-2,6,6,-trimethyl-4-oxo-2-cyclohexen-1-yl)-3-methyl-(2Z,4E)-pentadienoic acid; CAS no. 21293-29-8). After 8 and 19 days the fruit were re-counted and the percent fruit retention was determined. Limbs treated with 1000 ppm ABA retained less fruit than limbs treated with water 19 days following treatment (Table 1).

[4] = test system: Cacaks plum; test: Spray of plum trees at petal fall (BBCH stage 69), fruit set, yield, fruit weight; details: at harvest
Method: (§2) Trees of Cacaks plum were sprayed at petal fall (BBCH stage 69) with 500 ppm or 1000 ppm ABA or left untreated (Table 3). Percent fruit set, average yield and average fruit weight were determined at harvest. Spraying Cacaks plum trees with ABA reduced fruit set percentage and yield per tree and increased average fruit weight (Table 3).

[5] = test system: European seedless cucumber (var. Flamingo) plants; test: Foliar spray of greenhouse cucumber plants, fruit abortion; details: 100 ppm, sprayed to drip at 20 node growth stage
Method: European seedless cucumber (var. Flamingo) plants were grown in a greenhouse. At the 20 node growth stage the plants were sprayed to drip with ABA (100 ppm) solution or left unsprayed (control). ABA treated plants had twice the rate of fruit abortion compared to the control plants (Table 6).

[6] = test system: Katinka plum; test: Spray of plum trees at petal fall (BBCH stage 69), fruit set, yield, fruit weight; details: at harvest
Method: as §2, with “Katinka” for “Cacaks”, “4).” for “3).”

[7] = test system: Elegant Lady Peach; test: Spray of trees at petal fall (BBCH stage 69), fruit set; details: 1000 ppm at petal fall; at harvest
Method: (§3) Trees of Lady Elana Apricot and Elegant Lady Peach were sprayed at petal fall (BBCH stage 69) with 1000 ppm ABA or left untreated (Table 5). Percent fruit set was determined at harvest. Spraying Lady Elana Apricot and Elegant Lady Peach trees with ABA reduced percent fruit set (Table 5).

[8] = test system: Lady Elana Apricot; test: as above; details: 1000 ppm at petal fall; at harvest
Method: as §3

Substance: (S)-5-(1-hydroxy-2,6,6,-trimethyl-4-oxo-2-cyclohexen-1-yl)-3-methyl-(2Z,4E)-pentadienoic acid [ABA]
- Fruit/flower ([1]; after normal fruit drop period): 0.09
- 100 fruit weight ([1]; at harvest): 2.23 kg
- Fruit/flower ([2]; after normal fruit drop period): 0.45
- 100 fruit weight ([2]; at harvest): 2.35 kg
- percent fruit retention ([3]; 8 days after treatment): 97%
- percent fruit retention ([3]; 19 days after treatment): 69%
- % Fruit set ([4]; 500 ppm at petal fall): 20%
- Fruit weight ([4]; 500 ppm at petal fall): 14.5 g
- Yield ([4]; 500 ppm at petal fall): 8.0 kg/tree
- % Fruit set ([4]; 1000 ppm at petal fall): 11%
- Fruit weight ([4]; 1000 ppm at petal fall): 14.6 g
- Yield ([4]; 1000 ppm at petal fall): 7.0 kg/tree
- Percentage of basal 18 cucumber fruits per plant that aborted [5]: 68%
- rate of fruit abortion compared to the control plants [5]: twice
- % Fruit set ([6]; 500 ppm at petal fall): 28%
- Fruit weight ([6]; 500 ppm at petal fall): 26.2 g
- Yield ([6]; 500 ppm at petal fall): 4.2 kg/tree
- % Fruit set ([6]; 1000 ppm at petal fall): 21%
- Fruit weight ([6]; 1000 ppm at petal fall): 28.0 g
- Yield ([6]; 1000 ppm at petal fall): 4.4 kg/tree
- % Fruit set [7]: 36%
- % Fruit set [8]: 33%
